According to patent US9226929B2, “Pharmaceutically active disubstituted triazine derivatives” (Bayer Intellectual Property GMBH, priority 2011, dated 2016):

Legend:
[1] = target: T1, CDK2/CyclinA (Homo sapiens, UniProt P24941); test: Lance Ultra KinaSelect Assay, CDK2; assay type: biochemical; settings: ATP 3 μM; read-out: CDK2 LANCE assay (activity range), IC50
T1 construct: GST; purchased Proqinase
Procedure: (§1) 2. Measurement of half maximal inhibitory concentration to CDKs This protocol describes how the Lance Ultra KinaSelect Assay was performed to determine half maximal inhibitory concentration (1050) of compounds of general formula (I) and CDK/Cyclin complexes. The principle behind this enzymatic assay is based upon the phosphorylation of the ULight-Peptide Substrat. It is detected by using a specific
(§2) EU-labeled anti-phospho peptide antibody. The binding of the Eu-labeled anti-phospho peptide antibody to the phosphorylated ULight labeled peptide gives rise to a FRET-signal. Binding of an inhibitor to the kinase prevents phosphorylation of the ULight-MBP Substrat, resulting in a loss of FRET.
(§3) The compounds of general formula (I) summarized in Table 5 were diluted from a 10 mM DMSO stock solution 1:10 in a total volume of 15 μL DMSO. This compound predilution was then serial diluted 1:3 over 8 steps in DMSO and briefly spun down. Each compound solution was now diluted 1:20 in Enzymatic Buffer (HEPES: 50 mM, pH: 7.5; MgCl2: 10 mM; EGTA: 1 mM; DTT: 2 mM; Tween-20: 0.01%), mixed thoroughly and spun down. For every sample, 2 μL of the diluted compound were mixed with 6 μL CDK/Cyclin/Substrat solution and 2 μL ATP solution in a well of a small volume 384 well plate (Corning Incorporated, Corning, N.Y., USA; order no. 3673). The CDK/Cyclin was diluted to the appropriate concentration (see Table 3) and the ATP concentration was adjusted to its […] for the CDK/Cyclin, which was 3 μM for CDK2/Cyclin A, 20 μM for CDK1/Cyclin B1, 25 μM for CDK7/Cyclin H and CDK9/Cyclin T1, 55 μM for CDK6/Cyclin D3, 90 μM for CDK4/Cyclin D1 and 125 μM for CDK9/Cyclin K. For negative controls, in each well 2 μL of DMSO solution (1% final DMSO assay concentration) was mixed with 6 μL substrate solution (50 nM ULight MBP final assay concentration) and 2 μL ATP solution (appropriate final concentration see Table 3). For positive controls, in each well 2 μL of DMSO solution (1% final DMSO assay concentration) was mixed with 6 μL CDK/Cyclin/Substrat (appropriate final concentration see Table 3) and 2 μL Tracer ATP solution (appropriate final concentration see Table 3). Positive and negative controls were calculated from at least 8 different sample wells. The 384 well plates were mixed in a Teleshaker plate mixer (Beckman Coulter, Brea, Calif., USA) at 2000 rpm for 40 sec, and incubated for 1 h at room temperature. Before reading, 10 μL the detection buffer (Lance Detection Buffer 1×; EDTA: […]; Eu-Anti-P-MBP: see Table 3) was added. The FRET signal was measured at 340 nm excitation, 665 nm and 615 nm emission (for the kinase tracer and LanthaScreen Eu-AB, respectively) with an Envision spectrophotometer (Perkin Elmer, Waltham, Mass., USA) with 50 μs delay and 300 μs integration time. IC50 values were determined from the sigmoidal dose response curves with the software Quattro Workflow (Quattro GmbH, Munich, Germany).

[2] = target: T2, CDK9/Cyclin K (Homo sapiens, UniProt P50750); test: LanthaScreen Eu Kinase Binding Assay, CDK9/Cyclin K; settings: tracer 236, read-out: CDK9/Cyclin K (activity range), Kd
T2 construct: His; purchased Invitrogen
T2 sequence (P50750 whole entry): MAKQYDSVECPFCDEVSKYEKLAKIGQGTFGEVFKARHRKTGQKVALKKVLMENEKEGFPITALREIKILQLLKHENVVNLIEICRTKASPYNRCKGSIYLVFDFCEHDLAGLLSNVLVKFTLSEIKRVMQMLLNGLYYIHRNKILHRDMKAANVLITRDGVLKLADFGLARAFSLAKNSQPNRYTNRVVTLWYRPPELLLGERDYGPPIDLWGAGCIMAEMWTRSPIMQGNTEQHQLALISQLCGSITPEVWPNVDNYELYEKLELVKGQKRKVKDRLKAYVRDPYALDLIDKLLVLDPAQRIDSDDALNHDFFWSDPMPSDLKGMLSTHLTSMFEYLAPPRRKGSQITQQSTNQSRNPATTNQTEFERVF
T2 sequence (O75909 1-357 isoform O75909-1 partner): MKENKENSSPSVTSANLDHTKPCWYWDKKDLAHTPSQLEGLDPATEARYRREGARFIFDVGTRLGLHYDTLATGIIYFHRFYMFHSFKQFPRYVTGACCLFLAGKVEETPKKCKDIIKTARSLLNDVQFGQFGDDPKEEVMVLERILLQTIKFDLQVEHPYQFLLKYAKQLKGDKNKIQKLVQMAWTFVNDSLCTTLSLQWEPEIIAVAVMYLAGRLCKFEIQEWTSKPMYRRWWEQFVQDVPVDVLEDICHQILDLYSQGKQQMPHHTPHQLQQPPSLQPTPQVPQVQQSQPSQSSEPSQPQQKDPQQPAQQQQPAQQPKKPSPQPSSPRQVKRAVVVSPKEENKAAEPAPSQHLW
Procedure: (§4) This protocol describes how the LanthaScreen Eu Kinase Binding Assay was performed to determine dissociation constants (Kd) of compounds of general formula (I) and CDK/Cyclin complexes. The principle behind this assay is based upon the binding and displacement of an Alexa Fluor 647-labeled tracer, which binds to the active site of kinases. Binding of the tracer to the kinase is detected using a Eu-labeled antibody. Simultaneous binding of both the tracer and antibody to the kinase gives rise to a FRET-signal. Binding of an inhibitor to the kinase competes for binding with the tracer, resulting in a loss of FRET.
(§5) The compounds of general formula (I) summarized in Table 1 were diluted from a 10 mM DMSO stock solution 1:10 in a total volume of 15 μL DMSO. This compound predilution was then serial diluted 1:3 over 8 steps in DMSO and briefly spun down. Each compound solution was now diluted 1:33.33 in kinase buffer (HEPES: 20 mM, pH: 8.0; MgCl2: 10 mM; DTT: 1 mM; Brij-35: 0,01%), mixed thoroughly and spun down. For every sample, 5 μL of the diluted compound were mixed with 5 μL tracer working solution (e.g. 60 nM tracer 236 in kinase buffer for CDK2/Cyclin A) and 5 μL CDK/Cyclin/Anti-GST-AB-working solution (e.g. 15 nM CDK2/Cyclin A, 1:250 dilution of Anti-GST-AB in kinase buffer) in a well of a small volume 384 well plate (Corning Incorporated, Corning, N.Y., USA; order no. 3673). The tracer concentration was adjusted to its dissociation constant (Kd) for the CDK/Cyclin, which was 30 nM for CDK2/Cyclin A, CDK7/Cyclin H and CDK9/Cyclin T1, 20 nM for CDK8/Cyclin C, and 35 nM for CDK9/Cyclin K. For negative controls, in each well 5 μL of DMSO working solution (3% DMSO diluted in kinase buffer) was mixed with 5 μL Anti-GST-AB working solution (e.g. 1:250 dilution of Anti-GST-AB in kinase buffer for CDK2/Cyclin A) and 5 μL Tracer working solution (e.g. 60 nM Tracer 236 in kinase buffer for CDK2/Cyclin A). For positive controls, in each well 5 μL of DMSO working solution (3% DMSO diluted in kinase buffer) was mixed with 5 μL CDK/Cyclin/Anti-GST-AB-working solution: (e.g. 15 nM CDK2/Cyclin A, 1:250 dilution of Anti-GST-AB in kinase buffer) and 5 μL Tracer working solution (e.g. 60 nM Tracer 236 in kinase buffer for CDK2/Cyclin A). Positive and negative controls were calculated from at least 8 different sample wells. The 384 well plates were mixed in a Teleshaker plate mixer (Beckman Coulter, Brea, Calif., USA) at 2000 rpm for 40 sec, and incubated for 1 h at room temperature before reading. The FRET signal was measured at 340 nm excitation, 665 nm and 615 nm emission (for the kinase tracer and LanthaScreen Eu-AB, respectively) with an Envision spectrophotometer (Perkin Elmer, Waltham, Mass., USA) with […]. Kd values were determined from the sigmoidal dose response curves with the software Quattro Workflow (Quattro GmbH, Munich, Germany).

[3] = target: T3, CDK9 (Homo sapiens, UniProt P50750); test: Lance Ultra KinaSelect Assay, CDK9; assay type: biochemical; settings: cyclin partner (T1 or K) not stated; read-out: CDK9 LANCE assay (activity range), IC50
T3 construct: purchased Invitrogen
T3 sequence (P50750 whole entry): as the sequence (P50750 whole entry) above
Procedure: as §1, §2, §3

[4] = target: T4, CDK4/CyclinD1 (Homo sapiens, UniProt P11802); test: Lance Ultra KinaSelect Assay, CDK4; assay type: biochemical; settings: ATP 90 μM; read-out: CDK4 LANCE assay (activity range), IC50
T4 construct: purchased Invitrogen
T4 sequence (P11802 whole entry): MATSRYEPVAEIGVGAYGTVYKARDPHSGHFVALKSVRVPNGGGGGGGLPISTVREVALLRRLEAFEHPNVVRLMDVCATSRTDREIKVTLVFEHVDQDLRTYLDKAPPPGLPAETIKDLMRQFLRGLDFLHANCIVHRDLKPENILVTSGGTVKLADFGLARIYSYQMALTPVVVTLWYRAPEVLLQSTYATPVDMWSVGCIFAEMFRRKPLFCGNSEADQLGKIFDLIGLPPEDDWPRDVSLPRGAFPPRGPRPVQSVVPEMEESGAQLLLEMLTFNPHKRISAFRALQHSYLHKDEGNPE
T4 sequence (P24385 whole entry partner): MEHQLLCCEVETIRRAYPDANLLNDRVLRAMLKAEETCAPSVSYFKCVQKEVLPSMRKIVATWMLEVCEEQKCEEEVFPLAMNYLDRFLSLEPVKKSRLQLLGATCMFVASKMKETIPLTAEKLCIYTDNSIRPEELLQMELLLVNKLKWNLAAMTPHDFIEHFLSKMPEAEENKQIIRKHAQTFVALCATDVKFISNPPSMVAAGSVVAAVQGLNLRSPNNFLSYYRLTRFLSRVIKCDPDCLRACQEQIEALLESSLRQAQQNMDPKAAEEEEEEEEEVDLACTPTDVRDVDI
Procedure: as §1, §2, §3

[5] = target: T5, CDK1/CyclinB1 (Homo sapiens, UniProt P06493); test: Lance Ultra KinaSelect Assay, CDK1; assay type: biochemical; settings: ATP 20 μM; read-out: CDK1 LANCE assay (activity range), IC50
T5 construct: purchased Carna
T5 sequence (P06493 whole entry): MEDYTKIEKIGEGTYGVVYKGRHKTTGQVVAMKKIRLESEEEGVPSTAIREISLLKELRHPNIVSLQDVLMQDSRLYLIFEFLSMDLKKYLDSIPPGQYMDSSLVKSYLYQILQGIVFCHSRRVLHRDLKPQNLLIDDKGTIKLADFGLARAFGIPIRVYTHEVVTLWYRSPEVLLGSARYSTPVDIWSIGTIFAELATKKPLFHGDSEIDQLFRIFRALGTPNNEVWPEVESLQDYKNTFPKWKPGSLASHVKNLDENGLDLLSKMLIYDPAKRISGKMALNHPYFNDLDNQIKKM
T5 sequence (P14635 whole entry partner): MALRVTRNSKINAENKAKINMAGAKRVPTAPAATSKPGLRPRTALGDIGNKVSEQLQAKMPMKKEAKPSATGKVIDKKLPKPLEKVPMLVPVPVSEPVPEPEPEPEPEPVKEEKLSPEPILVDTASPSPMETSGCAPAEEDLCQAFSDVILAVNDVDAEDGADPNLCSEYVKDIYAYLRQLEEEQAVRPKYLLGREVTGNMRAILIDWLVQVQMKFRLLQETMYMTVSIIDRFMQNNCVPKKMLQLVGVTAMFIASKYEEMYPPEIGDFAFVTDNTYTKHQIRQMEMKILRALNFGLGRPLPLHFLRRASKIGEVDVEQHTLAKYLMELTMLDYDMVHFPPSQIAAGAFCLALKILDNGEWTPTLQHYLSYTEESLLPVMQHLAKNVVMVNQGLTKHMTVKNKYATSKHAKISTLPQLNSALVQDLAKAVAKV
Procedure: as §1, §2, §3

[6] = target: T6, CDK7/CyclinH/MAT1 (Homo sapiens, UniProt P50613); test: Lance Ultra KinaSelect Assay, CDK7; assay type: biochemical; settings: ATP 25 μM; read-out: CDK7 LANCE assay (activity range), IC50
T6 construct: His; purchased Carna Biosciences
T6 sequence (P50613 whole entry): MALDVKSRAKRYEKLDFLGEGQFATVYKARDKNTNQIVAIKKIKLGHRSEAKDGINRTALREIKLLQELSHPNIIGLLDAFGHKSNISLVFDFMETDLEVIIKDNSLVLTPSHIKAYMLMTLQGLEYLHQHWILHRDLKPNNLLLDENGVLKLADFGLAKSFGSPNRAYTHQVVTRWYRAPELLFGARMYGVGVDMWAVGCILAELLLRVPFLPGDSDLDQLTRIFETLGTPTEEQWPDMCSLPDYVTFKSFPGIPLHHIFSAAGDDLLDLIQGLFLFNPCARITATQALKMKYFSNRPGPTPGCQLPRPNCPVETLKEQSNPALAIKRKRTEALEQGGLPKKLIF
T6 sequence (P51946 whole entry partner): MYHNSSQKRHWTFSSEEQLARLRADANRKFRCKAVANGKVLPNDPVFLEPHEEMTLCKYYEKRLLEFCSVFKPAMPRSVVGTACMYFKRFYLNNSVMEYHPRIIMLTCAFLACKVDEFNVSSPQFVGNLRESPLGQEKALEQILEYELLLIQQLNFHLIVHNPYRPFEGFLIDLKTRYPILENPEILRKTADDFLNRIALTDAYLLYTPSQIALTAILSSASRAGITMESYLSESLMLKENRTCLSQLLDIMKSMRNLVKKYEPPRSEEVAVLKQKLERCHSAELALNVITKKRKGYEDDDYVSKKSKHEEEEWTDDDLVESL
T6 sequence (P51948 whole entry partner): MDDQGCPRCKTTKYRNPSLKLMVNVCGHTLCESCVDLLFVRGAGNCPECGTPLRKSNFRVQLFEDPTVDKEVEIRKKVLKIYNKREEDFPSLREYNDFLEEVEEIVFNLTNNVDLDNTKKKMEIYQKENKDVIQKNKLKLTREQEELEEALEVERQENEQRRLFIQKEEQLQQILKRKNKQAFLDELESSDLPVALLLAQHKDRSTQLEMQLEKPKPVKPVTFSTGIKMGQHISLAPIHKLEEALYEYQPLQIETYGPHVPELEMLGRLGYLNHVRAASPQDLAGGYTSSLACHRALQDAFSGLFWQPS
Procedure: as §1, §2, §3

[7] = target: T7, CDK9/Cyclin T1 (Homo sapiens, UniProt P50750); test: LanthaScreen Eu Kinase Binding Assay, CDK9/Cyclin T1; settings: tracer 236, read-out: CDK9/Cyclin T1 (activity range), Kd
T7 construct: His; purchased Invitrogen
T7 sequence (P50750 whole entry): as the sequence (P50750 whole entry) above
T7 sequence (O60563 whole entry partner): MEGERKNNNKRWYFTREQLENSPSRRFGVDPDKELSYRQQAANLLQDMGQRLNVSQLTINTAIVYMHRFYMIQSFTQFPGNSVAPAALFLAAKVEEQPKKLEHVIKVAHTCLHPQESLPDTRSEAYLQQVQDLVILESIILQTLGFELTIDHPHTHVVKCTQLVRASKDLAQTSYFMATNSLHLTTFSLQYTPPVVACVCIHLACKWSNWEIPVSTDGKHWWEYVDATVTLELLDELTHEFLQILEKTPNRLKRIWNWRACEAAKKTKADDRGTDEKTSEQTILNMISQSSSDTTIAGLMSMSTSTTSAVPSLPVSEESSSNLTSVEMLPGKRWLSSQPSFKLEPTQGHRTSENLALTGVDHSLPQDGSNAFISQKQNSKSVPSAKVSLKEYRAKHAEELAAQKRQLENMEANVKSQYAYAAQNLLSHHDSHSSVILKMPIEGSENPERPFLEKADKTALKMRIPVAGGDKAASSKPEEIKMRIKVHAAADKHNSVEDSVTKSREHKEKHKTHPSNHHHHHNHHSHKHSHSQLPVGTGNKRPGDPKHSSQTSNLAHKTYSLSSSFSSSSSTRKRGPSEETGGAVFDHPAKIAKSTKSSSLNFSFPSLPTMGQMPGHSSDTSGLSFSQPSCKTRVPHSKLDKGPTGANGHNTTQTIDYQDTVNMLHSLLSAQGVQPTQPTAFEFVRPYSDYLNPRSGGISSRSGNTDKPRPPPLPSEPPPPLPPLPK
Procedure: as §4, §5

[8] = target: T8, CDK6/CyclinD3 (Homo sapiens, UniProt Q00534); test: Lance Ultra KinaSelect Assay, CDK6; assay type: biochemical; settings: ATP 55 μM; read-out: CDK6 LANCE assay (activity range), IC50
T8 construct: purchased Carna
T8 sequence (Q00534 whole entry): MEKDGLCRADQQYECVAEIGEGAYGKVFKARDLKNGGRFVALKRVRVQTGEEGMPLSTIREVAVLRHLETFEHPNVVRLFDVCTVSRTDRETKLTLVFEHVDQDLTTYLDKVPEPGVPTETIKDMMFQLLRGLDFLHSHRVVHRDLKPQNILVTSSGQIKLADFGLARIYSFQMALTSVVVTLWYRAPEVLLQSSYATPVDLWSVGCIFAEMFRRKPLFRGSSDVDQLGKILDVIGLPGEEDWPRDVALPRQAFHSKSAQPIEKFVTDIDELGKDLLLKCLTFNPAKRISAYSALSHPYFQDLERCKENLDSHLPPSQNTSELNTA
T8 sequence (P30281 whole entry partner): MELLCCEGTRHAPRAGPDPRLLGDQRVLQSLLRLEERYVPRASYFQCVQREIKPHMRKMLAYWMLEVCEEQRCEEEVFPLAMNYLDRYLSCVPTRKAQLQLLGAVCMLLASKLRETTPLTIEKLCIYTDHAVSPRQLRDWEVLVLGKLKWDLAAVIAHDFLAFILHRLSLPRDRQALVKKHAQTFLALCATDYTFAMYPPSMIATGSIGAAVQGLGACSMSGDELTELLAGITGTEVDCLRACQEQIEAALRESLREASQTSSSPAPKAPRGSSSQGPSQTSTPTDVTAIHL
Procedure: as §1, §2, §3

[9] = target: T1, CDK2/CyclinA; test: LanthaScreen Eu Kinase Binding Assay, CDK2; settings: tracer 236, read-out: CDK2 (activity range), Kd
Procedure: as §4, §5

[10] = test system: NF-kappaB reporter gene activation; test: NF-kappaB Reporter Assay; assay type: cell-based; settings: Homo sapiens; HEK293 cells, pNFkBluc reporter, 20 ng/ml TNF alpha, 5 h; read-out: NF-kappaB activation (activity range), IC50
Procedure: 3.2 NF-kappaB Reporter Assay
Cells were maintained in RPMI cell culture medium+glutamine (PAN Biotech GmbH, Aidenbach, Germany) supplemented with 10% fetal calf serum (PAA Laboratories GmbH, Pasching, Austria) and grown at 37° C., 5% CO2. HEK293 cells grown to 50% confluence were transfected with the Amaxa® Cell Line Nucleofector® Kit V (Lonza, Basel, Switzerland, catalog #VCA-1003). Transfections were performed according to manufacturer's optimized protocol for transfection of HEK293 cells. In brief, 2×10^5 cells were transfected with 5 μg highly purified plasmid DNA. Cells were transfected with a NF-kappa B reporter plasmid (pNFkBluc), pTALluc for control, or pMAXGFP for transfection control. After transfection, cells were taken up in 500 μL RPMI1640 cell culture medium, incubated for 1 h at 37° C., and 4.5 ml DMEM without phenol red were added per transfection. Transfected cells were seeded in 96 well plates (Greiner Bio-One, Frickenhausen, Germany, catalog #655098) with 100 μL cell suspension per well and incubated for 48 h. To each well, 100 μL DMEM with 2× concentrated compound diluted from 10 mM DMSO stocks, or 100 μL DMEM with 0.4% DMSO for control wells, was added. The compounds of general formula (I) summarized in Table 6 were used in this assay. Cells were stimulated with 20 ng/ml TNF alpha, and plates were incubated for 5 h at 37° C./5% CO2. Cell culture supernatants were removed to leave 100 μl medium per well, followed by addition of 100 μl Bright Glo luciferase assay reagent (Promega, Madison, Wis., USA, catalog #E2620), and shaking for 5 minutes in the dark. Luminescence was measured with a Victor Photospectrometer (Perkin Elmer, Waltham, Mass., USA). IC50 values were calculated with the software Excel Fit (IDBS, Guildford, UK) from 2-fold dilution series comprising at least 10 concentrations in duplicates.

[11] = target: T6, CDK7/CyclinH/MAT1; test: LanthaScreen Eu Kinase Binding Assay, CDK7; settings: tracer 236, read-out: CDK7 (activity range), Kd
Procedure: as §4, §5

[12] = test system: Hela cells; test: Cell Viability Assay, Hela cells; assay type: cell-based; settings: Homo sapiens, 72 h, Cell Titer Glo, read-out: Cell Viability - Hela cells (activity range), IC50
Procedure: (§6) 3.4 Cell Viability Assays
(§7) Hela- or MDAMB468-Cells were maintained in RPMI 1640 or McCoy's 5A cell culture medium+glutamine (PAN Biotech GmbH, Aidenbach, Germany; order no. PO4-22100; PO4-05500) supplemented with 10% fetal calf serum “Gold” (PAA Laboratories GmbH, Pasching, Austria; order no. A15-151) and grown at 37° C., 5% CO2. For the cell viability assay, cells were seeded with a density of 400 (Hela cells, DSMZ Braunschweig order no. ACC57) or 800 (MDAMB468 cells, ATCC order no. HTB-132) per well in 25 μL in 384-well plates (Greiner Bio-One, Frickenhausen, Germany; order no. 781080). After overnight incubation at 37° C./5% CO2, 25 nL or 75 nL compound were added to each sample well by using BIOMEK FXP Laboratory Automation Workstation (Beckman Coulter, USA). Wells with cells and 0.1% or 0,3% DMSO in culture medium were used as positive controls, wells with cells and 10 μM staurosporine in culture medium were used as negative controls. The cells were incubated with the compounds for 72 h at 37° C./5% CO2. For measurement of cell viability 25 μL Cell Titer Glo reagent (Promega, Madison, USA; order no. G7573), 1:2 diluted with cell culture medium, was added to each well. The 384we11-plates were placed for 2 min on a orbital microplate shaker and incubated for further 10 min at room temperature to stabilize the luminescence signal.
(§8) Luminescence was measured by Envision Plate Reader (Perkin Elmer, USA). IC50 values were calculated with the software Excel Fit (IDBS, Guildford, UK) from 3-fold dilution series comprising at least 8 concentrations in duplicates.

[13] = test system: MDAMB468 cells; test: Cell Viability Assay, MDAMB468 cells; assay type: cell-based; settings: Homo sapiens, MDA-MB-468; 72 h, Cell Titer Glo; read-out: Cell Viability - MDAMB468 cells (activity range), IC50
Procedure: as §6, §7, §8

| Compound | IC50 [1] [µM] | Kd [2] [µM] | IC50 [3] [µM] | IC50 [4] [µM] | IC50 [5] [µM] | IC50 [6] [µM] | Kd [7] [µM] | IC50 [8] [µM] | Kd [9] [µM] | IC50 [10] [µM] | Kd [11] [µM] | IC50 [12] [µM] | IC50 [13] [µM] |
| --- | --- | --- | --- | --- | --- | --- | --- | --- | --- | --- | --- | --- | --- |
| CN(C)CCC1CCCCN1c1ncnc(Nc2cccc(CS(N)(=O)=O)c2)n1 (racemic) [Compound B8, rac-3-[(4-(2-(2-(Dimethylamino)ethyl)piperidin-1-yl)-1,3,5-triazin-2-yl)amino]benzenemethanesulfonamide] | > 10 | 1 to 10 | 1 to 10 | > 10 | > 10 | > 10 | 1 to 10 | > 10 | – | – | – | – | – |
| NS(=O)(=O)Cc1cccc(Nc2ncnc(N3CCC[C@@H]3COCc3ccccc3)n2)c1 [Compound B30, (R)-3-[(4-(2-(Benzyloxymethyl)pyrrolidin-1-yl)-1,3,5-triazin-2-yl)amino]benzenemethanesulfonamide] | – | 0.1 to 1 | – | – | – | – | 0.1 to 1 | – | > 10 | > 10 | > 10 | – | – |
| NS(=O)(=O)Cc1cccc(Nc2ncnc(N3CCC[C@@H]3c3ccccc3)n2)c1 [Compound B34, (R)-3-[(4-(2-Phenylpyrrolidin-1-yl)-1,3,5-triazin-2-yl)amino]-benzenemethanesulfonamide] | – | < 0.1 | – | – | – | – | < 0.1 | – | 1 to 10 | – | > 10 | > 10 | 1 to 10 |
| NS(=O)(=O)Cc1cccc(Nc2ncnc(N3CCC[C@@H]3C(F)(F)F)n2)c1 [Compound B54, (R)-3-[(4-(2-(Trifluoromethyl)pyrrolidin-1-yl)-1,3,5-triazin-2-yl)amino]-benzenemethanesulfonamide] | 1 to 10 | – | 1 to 10 | – | – | – | 0.1 to 1 | – | 1 to 10 | – | > 10 | – | – |
